Reference: patent US9115093B2, “Substituted bicyclic dihydropyrimidinones and their use as inhibitors of neutrophil elastase activity” (Boehringer Ingelheim International GmbH, priority 2013, dated 2015)

target: T1, neutrophil elastase (Homo sapiens, UniProt P08246); assay: Human Neutrophil Elastase Assay; assay type: biochemical; parameters: purchased Calbiochem 324681; conditions: substrate MeOSuc-Ala-Ala-Pro-Val-AMC, pH 7.5, room temperature
T1 sequence (P08246 30-247 limits assumed): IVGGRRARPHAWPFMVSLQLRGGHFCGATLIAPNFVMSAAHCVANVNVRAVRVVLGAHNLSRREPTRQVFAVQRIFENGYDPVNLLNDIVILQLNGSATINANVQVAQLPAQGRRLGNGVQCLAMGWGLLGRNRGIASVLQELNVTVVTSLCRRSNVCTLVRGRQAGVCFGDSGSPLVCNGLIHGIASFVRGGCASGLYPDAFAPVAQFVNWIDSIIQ
In short: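 Readout: AMC fluorescence (ex 380, em 460 nm) after 60 min room-temperature reaction with 250 nM MeOSuc-AAPV-AMC, following 15 min compound–enzyme preincubation. Buffer: Tris/NaCl pH 7.5, 0.01% BSA.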

SMILES	IC50 [nM]
COC(=O)N1C(=O)N(c2cccc(C(F)(F)F)c2)C2=C(C(=O)CCC2)C1c1ccc(C#N)cc1 (stereo not drawn) [Example 40, Methyl 4-(4-Cyanophenyl)-2,5-dioxo-1-(3-(trifluoromethyl)phenyl)-1,2,5,6,7,8-hexahydroquinazoline-3(4H)-carboxylate]	9
COC(=O)C1CC(=O)C2=C(C1)N(c1cccc(C(F)(F)F)c1)C(=O)NC2c1ccc(C#N)cc1 (stereo not drawn) [Example 11, Methyl 4-(4-Cyanophenyl)-2,5-dioxo-1-(3-(trifluoromethyl)phenyl)-1,2,3,4,5,6,7,8-octahydroquinazoline-7-carboxylate]	39.4
CS(=O)(=O)c1cc(C#N)ccc1C1NC(=O)N(c2ccnc(C(F)(F)F)c2)C2=C1C(=O)CCC2 (stereo not drawn) [Example 57, 4-(2,5-Dioxo-1-(2-(trifluoromethyl)pyridin-4-yl)-1,2,3,4,5,6,7,8-octahydroquinazolin-4-yl)-3-(methylsulfonyl)benzonitrile]	73.2
CCOC(=O)C(F)N1C(=O)N(c2cccc(C(F)(F)F)c2)C2=C(C(=O)CCC2)C1c1ccc(C#N)cc1 (stereo not drawn) [Example 60, Ethyl 2-(4-(4-Cyanophenyl)-2,5-dioxo-1-(3-(trifluoromethyl)phenyl)-1,2,5,6,7,8-hexahydroquinazolin-3(4H)-yl)-2-fluoroacetate]	21.6
CN(C(=O)N1C(=O)N(c2cccc(C(F)(F)F)c2)C2=C(C(=O)CCC2)C1c1ccc(C#N)cc1)c1cnn(C)c1 (stereo not drawn) [Example 39.14]	15
CS(=O)(=O)c1cc(C#N)ccc1[C@@H]1C2=C(CCCC2=O)N(c2cccc(C(F)(F)F)c2)C(=O)N1C(=O)NC1CC(O)C1 (stereo partly drawn) [Example 75.11]	< 1
N#Cc1ccc(C2C3=C(CCCC3=O)N(c3cccc(C(F)(F)F)c3)C(=O)N2CCCN2CCCC2)cc1 (stereo not drawn) [Example 23, 4-(1-(3-(Trifluoromethyl)phenyl)-2,5-dioxo-3-(3-(pyrrolidin-1-yl)propyl)-1,2,3,4,5,6,7,8-octahydroquinazolin-4-yl)benzonitrile]	10.7
CS(=O)(=O)c1cc(C#N)ccc1[C@@H]1C2=C(CCCC2=O)N(c2cccc(C(F)(F)F)c2)C(=O)N1C(=O)NCC#N [Example 75.1]	< 1
COCCNC(=O)N1C(=O)N(c2cccc(C(F)(F)F)c2)C2=C(C(=O)CCC2)[C@H]1c1ccc(C#N)cc1S(C)(=O)=O [Example 75.6]	< 1
CC(C)(C)COC(=O)N1C(=O)N(c2cccc(C(F)(F)F)c2)C2=C(C(=O)CCC2)C1c1ccc(C#N)cc1 (stereo not drawn) [Example 42, Neopentyl 4-(4-Cyanophenyl)-2,5-dioxo-1-(3-(trifluoromethyl)phenyl)-1,2,5,6,7,8-hexahydroquinazoline-3(4H)-carboxylate]	88.7
CC(C)(O)CNC(=O)N1C(=O)N(c2cccc(C(F)(F)F)c2)C2=C(C(=O)CCC2)[C@H]1c1ccc(C#N)cc1S(C)(=O)=O [Example 75.12]	< 1
N#Cc1ccc(C2NC(=O)N(c3cccc(C(F)(F)F)c3)C3=C2C(=O)CC(C(F)(F)F)C3)cc1 (stereo not drawn) [Example 5, 4-(2,5-Dioxo-7-(trifluoromethyl)-1-(3-(trifluoromethyl)phenyl)-1,2,3,4,5,6,7,8-octahydroquinazolin-4-yl)benzonitrile]	65.8
CN1CCCC1CNC(=O)CN1C(=O)N(c2cccc(C(F)(F)F)c2)C2=C(C(=O)CCC2)C1c1ccc(C#N)cc1 (stereo not drawn) [Example 36.39]	26.3
N#Cc1ccc(C2C3=C(CCCC3=O)N(c3cccc(C(F)(F)F)c3)C(=O)N2CC(=O)NCC2CCCOC2)cc1 (stereo not drawn) [Example 36.42]	9.9
N#Cc1ccc(C2C3=C(CCCC3=O)N(c3cccc(C(F)(F)F)c3)C(=O)N2CC(=O)NCCn2cccn2)cc1 (stereo not drawn) [Example 36.32]	14
N#Cc1ccc(C2NC(=O)N(c3ccnc(C(F)(F)F)c3)C3=C2C(=O)CCC3)cc1 (stereo not drawn) [Example 14, 4-(2,5-Dioxo-1-(2-(trifluoromethyl)pyridin-4-yl)-1,2,3,4,5,6,7,8-octahydroquinazolin-4-yl)benzonitrile]	70.3
N#Cc1ccc([C@H]2C3=C(CCCC3=O)N(c3cccc(C(F)(F)F)c3)C(=O)N2CC(=O)O)cc1 [Example 32B, (S)-2-(4-(4-Cyanophenyl)-2,5-dioxo-1-(3-(trifluoromethyl)phenyl)-1,2,5,6,7,8-hexahydroquinazolin-3(4H)-yl)acetic acid]	1410
N#Cc1ccc(C2C3=C(CCCC3=O)N(c3cccc(C(F)(F)F)c3)C(=O)N2S(=O)(=O)C=Cc2ccccc2)cc1 (stereo not drawn) [Example 44.12]	106
N#Cc1ccc(C2NC(=O)N(c3cccc(C(F)(F)F)c3)C3=C2C(=O)CC(c2cccs2)C3)cc1 (stereo not drawn) [Example 9, 4-(2,5-Dioxo-7-(thiophen-2-yl)-1-(3-(trifluoromethyl)phenyl)-1,2,3,4,5,6,7,8-octahydroquinazolin-4-yl)benzonitrile]	41.7
N#Cc1ccc(C2NC(=O)N(c3cccc(C(F)(F)F)c3)C3=C2C(=O)CC(c2ccc(C(F)(F)F)cc2)C3)cc1 (stereo not drawn) [Example 7, 4-(2,5-Dioxo-1-(3-(trifluoromethyl)phenyl)-7-(4-(trifluoromethyl)phenyl)-1,2,3,4,5,6,7,8-octahydroquinazolin-4-yl)benzonitrile]	212
N#Cc1ccc(C2C3=C(CCCC3=O)N(c3cccc(C(F)(F)F)c3)C(=O)N2C(=O)N2CC(O)C2)cc1 (stereo not drawn) [Example 39.4]	13.4
N#Cc1ccc(C2NC(=O)N(c3cccc(C(F)F)c3)C3=C2C(=O)CCC3)cc1 (stereo not drawn) [Example 17, 4-(1-(3-(Difluoromethyl)phenyl)-2,5-dioxo-1,2,3,4,5,6,7,8-octahydroquinazolin-4-yl)-benzonitrile]	23.2
N#Cc1ccc(C2C3=C(CCCC3=O)N(c3cccc(C(F)(F)F)c3)C(=O)N2CC(=O)NC2CC2)cc1 (stereo not drawn) [Example 36.2]	13.1
COC1CCN(C(=O)N2C(=O)N(c3cccc(C(F)(F)F)c3)C3=C(C(=O)CCC3)C2c2ccc(C#N)cc2)C1 (stereo not drawn) [Example 39.10]	54.8
CS(=O)(=O)c1cc(C#N)ccc1C1C2=C(CCCC2=O)N(c2cccc(C(F)(F)F)c2)C(=O)N1CCC1CCOCC1 (stereo not drawn) [Example 58.6]	< 1

The next lines start with the values.

IC50 [nM]	SMILES
6.6	CC(C(=O)NCCO)N1C(=O)N(c2cccc(C(F)(F)F)c2)C2=C(C(=O)CCC2)C1c1ccc(C#N)cc1 (stereo not drawn) [Example 61, 2-(4-(4-Cyanophenyl)-2,5-dioxo-1-(3-(trifluoromethyl)phenyl)-1,2,5,6,7,8-hexahydroquinazolin-3(4H)-yl)-N-(2-hydroxyethyl)propanamide]
7.8	Cn1cc(CNC(=O)CN2C(=O)N(c3cccc(C(F)(F)F)c3)C3=C(C(=O)CCC3)C2c2ccc(C#N)cc2)cn1 (stereo not drawn) [Example 36.31]
2	Cc1cc(C#N)ccc1C1C2=C(CCCC2=O)N(c2cccc(C(F)(F)F)c2)C(=O)N1S(C)(=O)=O (stereo not drawn) [Example 66, 3-Methyl-4-(3-(methylsulfonyl)-2,5-dioxo-1-(3-(trifluoromethyl)phenyl)-1,2,3,4,5,6,7,8-octahydroquinazolin-4-yl)benzonitrile]
8.1	CC(C)(O)CNC(=O)CN1C(=O)N(c2cccc(C(F)(F)F)c2)C2=C(C(=O)CCC2)C1c1ccc(C#N)cc1 (stereo not drawn) [Example 36.14]
6.2	N#Cc1ccc(C2C3=C(CCCC3=O)N(c3cccc(C(F)(F)F)c3)C(=O)N2CC(=O)N2CCn3cccc3C2)cc1 (stereo not drawn) [Example 36.48]
1.7	CC1(O)CCN(C(=O)CN2C(=O)N(c3cccc(C(F)(F)F)c3)C3=C(C(=O)CCC3)C2c2ccc(C#N)cc2)C1 (stereo not drawn) [Example 36.25]
1.1	CC(C)(O)CCNC(=O)N1C(=O)N(c2cccc(C(F)(F)F)c2)C2=C(C(=O)CCC2)C1c1ccc(C#N)cc1 (stereo not drawn) [Example 70.16]
5.9	N#Cc1ccc(C2C3=C(CCCC3=O)N(c3cccc(C(F)(F)F)c3)C(=O)N2CC(=O)NCCn2ccnc2)cc1 (stereo not drawn) [Example 36.30]
4.2	CN1CCN(C(=O)CN2C(=O)N(c3cccc(C(F)(F)F)c3)C3=C(C(=O)CCC3)C2c2ccc(C#N)cc2)CC1=O (stereo not drawn) [Example 36.37]
< 1	N#Cc1ccc(C2C3=C(CCCC3=O)N(c3cccc(C(F)(F)F)c3)C(=O)N2C(=O)NC2COC2)cc1 (stereo not drawn) [Example 39.5]
< 1	N#Cc1ccc(C2C3=C(CCCC3=O)N(c3cccc(C(F)(F)F)c3)C(=O)N2C(=O)NC2CCS(=N)(=O)CC2)cc1 (stereo not drawn) [Example 72, 4-(4-Cyanophenyl)-2,5-dioxo-N-(1-imino-1-oxo-hexahydro-1λ^6-thiopyran-4-yl)-1-(3-(trifluoromethyl)phenyl)-1,2,5,6,7,8-hexahydroquinazoline-3(4H)-carboxamide]
< 1	N#Cc1ccc(C2C3=C(CCCC3=O)N(c3cccc(C(F)(F)F)c3)C(=O)N2C(=O)NC2CCOC2)cc1 (stereo not drawn) [Example 70.8]
6	N#Cc1ccc(C2C3=C(CCCC3=O)N(c3cccc(C(F)(F)F)c3)C(=O)N2C(N)=O)cc1 (stereo not drawn) [Example 70, 4-(4-Cyanophenyl)-2,5-dioxo-1-(3-(trifluoromethyl)phenyl)-1,2,5,6,7,8-hexahydroquinazoline-3(4H)-carboxamide]
5.1	N#Cc1ccc(C2C3=C(CCCC3=O)N(c3cccc(C(F)(F)F)c3)C(=O)N2CC(=O)N2CCC(F)C2)cc1 (stereo not drawn) [Example 36.11]
7.9	Cc1cc(C#N)ccc1C1C2=C(CCCC2=O)N(c2cccc(C(F)(F)F)c2)C(=O)N1C (stereo not drawn) [Example 63, 3-Methyl-4-(3-methyl-2,5-dioxo-1-(3-(trifluoromethyl)phenyl)-1,2,3,4,5,6,7,8-octahydroquinazolin-4-yl)benzonitrile]
< 1	C[S+]([O-])CCNC(=O)N1C(=O)N(c2cccc(C(F)(F)F)c2)C2=C(C(=O)CCC2)C1c1ccc(C#N)cc1 (stereo not drawn) [Example 39.12]
7.5	CCS(=O)(=O)c1cc(C#N)ccc1C1NC(=O)N(c2cccc(C(F)(F)F)c2)C2=C1C(=O)CCC2 (stereo not drawn) [Example 54, 4-(2,5-Dioxo-1-(3-(trifluoromethyl)phenyl)-1,2,3,4,5,6,7,8-octahydroquinazolin-4-yl)-3-(ethylsulfonyl)benzonitrile]
